How the values were obtained:
[1] = system: rodent models of cirrhosis-driven HCC; details: Fuchs et al., Hepatology, 2014; cited from earlier work
[2] = system: HCV Jc1-infected Huh7.5.1^dif cells; experiment: 186-gene HCC risk signature (nCounter, GSEA, nearest template prediction) in persistently HCV Jc1-infected Huh7.5.1^dif cells; format: cell-based, human; details: for Reversal of HCC high-risk genes as shown by GSEA (FIG. 2A): DAA 1 nM DCV+1 μM SOF, interferon alpha-2a 10 IU/ml, erlotinib 0.1 μM, pioglitazone 1 μM, metformin 3 μM, mAb 1, 10 and 100 μg/ml
Experimental: Huh7.5.1 cells have already been described (Zhong et al., Proc Natl Acad Sci USA, 2005, 102(26): 9294-9299). For proliferation arrest and differentiation (Huh7.5.1^dif cells), 2.5.10^4 to 3.10^4 Huh7.5.1 cells were cultured in Dulbecco's Modified Eagle Medium (DMEM) containing 1% dimethylsulfoxide (DMSO).
Cell culture-derived HCVcc Jc1 (genotype 2a/2a) (Pietschmann et al., Proc Natl Acad Sci USA, 2006, 103(19): 7408-7413) were generated in Huh7.5.1 cells as previously described (Wakita et al., Nat Med., 2005, 11(7): 791-796). HCVcc infectivity was determined by calculating the 50% tissue culture infectious doses (TCID50) in infection experiments as previously described (Lindenbach et al., Science, 2005, 309(5734): 623-626). HCV infection was assessed by qRT-PCR of intracellular HCV RNA (Xiao et al., Gut, 2015, 64(3): 483-494) as well as by immunostaining using an HCV E2-specific AP33 antibody as previously described (Krieger et al., Hepatology. 2010, 51(4): 1144-1157).
Liver cells were lysed in TRI-reagent (Molecular Research Center), and RNA was purified using Direct-zol RNA MiniPrep (Zymo Research) according to the manufacturer's instructions. RNA quantity and quality were assessed using NanoDrop (ThermoScientific) and Bioanalyzer 2100 ([…]). Gene expression profiling was performed using 250-500 ng total RNA by using nCounter Digital Analyzer system (NanoString).
Cells incubated with 1% DMSO served as negative control. Three (3) days after treatment, the cells were lysed, total RNA was purified as described above, and analyzed for gene expression and intracellular viral load as described above.
Prediction of clinical outcome based on the 186-gene signature was performed as previously reported by using the nearest template prediction algorithm, which was implemented in GenePattern (King et al., Gut, 2014, 20. pii: gutjn1-2014-307862. doi: 10.1136/gutjn1-2014-307862; Hoshida et al., PLoS ONE, 2010, 5(11), e15543). A prediction of HCC high-risk or low-risk gene signature was determined using p<0.05 and FDR<0.25. Induction/suppression of each gene set over time according to HCV Jc1 infection and uninfected control was assessed through GSEA and single sample GSEA (ssGSEA) modules implemented in GenePattern as previously described (Subramanian et al., Proc Natl Acad Sci USA, 2005, 102(43): 15545-15550; Barbie et al., Nature, 2009, 462(7269): 108-112). […] Using differentially expressed genes, network analysis was performed using canonical pathways from Ingenuity Knowledge Base repository (Ingenuity Systems Inc.).

[3] = 186-gene signature, treatment from day 7 post-infection, nCounter assay

| SMILES | 186-gene HCC risk signature [1] | Liver fibrosis and HCC nodules [1] | NES, HCC high-risk genes (GSEA) [2, 3] | NES, HCC low-risk genes (GSEA) [2, 3] | Reversal of HCC high-risk genes as shown by GSEA (FIG. 2A) [2] |
| --- | --- | --- | --- | --- | --- |
| C#Cc1cccc(Nc2ncnc3cc(OCCOC)c(OCCOC)cc23)c1 [erlotinib] | reversed | reduced liver fibrosis and HCC nodules | −1.28 | 1.26 | partially reverses |
| CN(C)C(=N)N=C(N)N [metformin] | – | – | – | – | had no effect |

Source: patent US10927170B2, “Anti-claudin 1 monoclonal antibodies for the prevention and treatment of hepatocellular carcinoma” (INSTITUT HOSPITALIER UNIVERSITAIRE DE STRASBOURG, priority 2015, dated 2021)
